Assays:
caspase-3 = assay: Caspase-3 activity (Z-DEVD-AFC fluorescence); type: cell-based; details: rat PMCs, D-glucose 50 mM, 24 hours, aliskiren 10-100 μM, FIG. 7
Experimental: The cells were incubated in D-glucose at 50 mM for 24 hours in the presence or absence of aliskiren (10-100 μM), and caspase-3 activity was measured as described in Material and Methods. The data is expressed as mean±SEM, n=3. * p<0.05 compared to the control (C). # p<0.05 compared to untreated cells (control). # p<0.05, compared to cells treated with D-glucose in the presence of carrier (0).
(§1) Rat peritoneal mesothelial cells were isolated by enzymatic digestion in accordance with protocols described in Hjelle J T, Golinska B T, Waters D C, et al. Perit Dial Int 1989; 9: 341-7. Briefly, female rats weighing 200-400 g of the Spragle-Dawley strain were sacrificed pursuant to Royal Decree 1201/2005, of 10 Oct., on protection of animals used for experimental and other scientific purposes. […]
In order to determine caspase-3 activity (Posadas I, Vellecco V, Santos P, et al. Br J Pharmacol 2007; 150: 577-85), the rat mesothelial cells were seeded on 6-well plates until reaching a confluence of 80%. […] After incubation, the samples were centrifuged at 13,000 rpm for 15 minutes at 4° C. and the protein concentration in the supernatants was determined using the Bradford method, following the standard protocol. […] Fluorescence emission was determined on a spectrofluorimeter (Tecan, Austria) at an excitation wavelength of 400 nm and an emission wavelength of 505 nm.

p38 MAPK = assay: Phosphorylation of p38 MAPK by Western blot; type: cell-based; details: rat PMCs, D-glucose 50 mM, FIG. 8
Source text: Densitometric analysis of the phosphor-p38 levels normalized with respect to the controls (C). The data is expressed as mean±SEM, n=3. * p<0.05 compared to untreated cells (control). # p<0.05, compared to cells treated with D-glucose in the presence of carrier (0).
as §1, with “purposes. The abdominal cavity was quickly opened and the abdominal wall (peritoneum and smooth muscle) extracted under sterile conditions.” for “purposes.”
In order to obtain the total protein of the cell cultures, the culture medium was collected and replaced with PBS. […] The protein content of the cell lysates was determined using the Bradford method, following the standard protocol (Vorobiov M, Malki M, Shnaider A, et al. Perit Dial Int 2008; 28: 648-54). A quantity of 20 μg of protein/well of each sample was loaded onto 10% polyacrylamide gels. […] Band intensity was quantified by grey levels using an appropriate image analysis system (Quantity One).

activation of caspase (caspase-3): prevented
SMILES: COCCCOc1cc(C[C@@H](C[C@H](N)[C@@H](O)C[C@H](C(=O)NCC(C)(C)C(N)=O)C(C)C)C(C)C)ccc1OC [aliskiren]
phosphorylation of protein p38 (p38 MAPK): prevented
